Data published in ChEMBL document CHEMBL1151129, “Two new bioactive carbazole alkaloids from the root bark of Clausena harmandiana” (J Nat Prod, 1988).
Values after ≈ are worked out from the molar mass of the structure shown.

Key:
HT-29 = test: Cytotoxicity against human HT-29 cells; assay type: functional; settings: read-out: ED50 (the source's name)
[1] = Cytotoxicity against mouse 9PS cells; assay type: functional; settings: read-out: ED50 (the source's name)
A549 = test: Cytotoxicity against human A549 cells; assay type: functional; settings: read-out: ED50 (the source's name)
Artemia = test: Toxicity to brine shrimp; assay type: organism-based; settings: in vivo
[2] = Cytotoxicity against human 9KB cells; assay type: functional; settings: read-out: ED50 (the source's name)
[3] = Cytotoxicity against human KBMRI cells; assay type: functional; settings: read-out: ED50 (the source's name)

Row | Structure (SMILES) | EC50 (HT-29) | EC50 [1] | EC50 (A549) | LC50 (Artemia) | EC50 [2] | EC50 [3]
1 | COc1ccc2c(c1)[nH]c1c(CC=C(C)C)c(O)c(C=O)cc12 | 1.36 µg/mL (≈ 4.4 µM) | > 10 µg/mL | 2.16 µg/mL (≈ 6.98 µM) | > 500 ppm | 3.01 µg/mL (≈ 9.73 µM) | 2.87 µg/mL (≈ 9.28 µM)
2 | COc1ccc2c(c1)[nH]c1cc(O)c(C=O)cc12 | 4 µg/mL (≈ 16.6 µM) | > 10 µg/mL | 2.74 µg/mL (≈ 11.4 µM) | 35 ppm | 5.7 µg/mL (≈ 23.6 µM) | 4.48 µg/mL (≈ 18.6 µM)
